Test results: patent US8772293B2, “Chemical compounds” (Pfizer Limited, priority 2010, dated 2014)
Counter-ions that a name gives are not always drawn.

Biological target: T1, Nav1.7 (or SCN9A) channel (Homo sapiens, UniProt Q15858)
T1 construct: expressed in transfected cells
Test: Nav1.7 (hSCN9A) PatchXpress electrophysiology in HEK cells
Type: cell-based
Settings: PatchXpress platform; HEK cells stably expressing hSCN9A; held at V1/2 of inactivation; calculated from single point % inhibition; read-out: Nav1.7 EIC50 (estimated IC-50)
Protocol: The ability of the compounds of formula (I) to block the Nav1.7 (or SCN9A) channel were measured using the assay described below.
Human Embryonic Kidney (HEK) cells were transfected with an hSCN9A construct using lipofectamine reagent (Invitrogen), using standard techniques. Cells stably expressing the hSCN9A constructs were identified by their resistance to G-418 (400 μg/ml). Clones were screened for expression using the whole-cell voltage-clamp technique.
HEK cells stably transfected with hSCN9A were maintained in DMEM medium supplemented with 10% heat-inactivated fetal bovine serum and 400 µg/ml G-418 in an incubator at 37° C. with a humidified atmosphere of 10% CO2. For HTS, cells were harvested from flasks by trypsinization and replated in an appropriate multi-well plate (typically 96 or 384 wells/plate) such that confluence would be achieved within 24 hours of plating. For electrophysiological studies, cells were removed from the culture flask by brief trypsinization and re-plated at low density onto glass cover slips. Cells were typically used for electrophysiological experiments within 24 to 72 hours after plating.
Cover slips containing HEK cells expressing hSCN9A were placed in a bath on the stage of an inverted microscope and perfused (approximately 1 ml/minutes) with extracellular solution of the following composition: 138 mM NaCl, 2 mM CaCl2, 5.4 mM KCl, 1 mM MgCl2, 10 mM glucose, and 10 mM HEPES, pH 7.4, with NaOH. […] The osmolarity of the extracellular and intracellular solutions was 300 mOsm/kg and 295 mOsm/kg, respectively. All recordings were made at room temperature (22-24° C.) using AXOPATCH 200B amplifiers and PCLAMP software (Axon Instruments, Burlingame, Calif.).
hSCN9A currents in HEK cells were measured using the whole-cell configuration of the patch-clamp technique (Hamill et al., 1981). Uncompensated series resistance was typically 2 to 5 mega ohms and >85% series resistance compensation was routinely achieved. As a result, voltage errors were negligible and no correction was applied. Current records were acquired at 20 to 50 KHz and filtered at 5 to 10 KHz.
HEK cells stably transfected with hSCN9A were viewed under Hoffman contrast optics and placed in front of an array of flow pipes emitting either control or compound-containing extracellular solutions. All compounds were dissolved in dimethyl sulfoxide to make 10 mM stock solutions, which were then diluted into extracellular solution to attain the final concentrations desired. […] The voltage-dependence of inactivation was determined by applying a series of depolarizing prepulses (8 sec long in 10 mV increments) from a negative holding potential. The voltage was then immediately stepped to 0 mV to assess the magnitude of the sodium current. Currents elicited at 0 mV were plotted as a function of prepulse potential to allow estimation of the voltage at which 50% of the channels were inactivated (midpoint of inactivation or V1/2). Compounds were tested for their ability to inhibit hSCN9A sodium channels by activating the channel with a 20 msec voltage step to 0 mV following an 8 second conditioning prepulse to the empirically determined V1/2. Compound effect (% inhibition) was determined by difference in current amplitude before and after application of test compounds. For ease of comparison, “estimated IC-50” (EIC50) values were calculated from single point electrophysiology data by the following equation, (tested concentration, uM)×(100-% inhibition/% inhibition). Inhibition values <20% and >80% were excluded from the calculation.
Electrophysiological assays were conducted with PatchXpress 7000 hardware and associated software (Molecular Devices Corp). All assay buffers and solutions were identical to those used in conventional whole-cell voltage clamp experiments described above. hSCN9A cells were grown as above to 50%-80% confluency and harvested by trypsinization. […]

T1 sequence (Q15858 whole entry): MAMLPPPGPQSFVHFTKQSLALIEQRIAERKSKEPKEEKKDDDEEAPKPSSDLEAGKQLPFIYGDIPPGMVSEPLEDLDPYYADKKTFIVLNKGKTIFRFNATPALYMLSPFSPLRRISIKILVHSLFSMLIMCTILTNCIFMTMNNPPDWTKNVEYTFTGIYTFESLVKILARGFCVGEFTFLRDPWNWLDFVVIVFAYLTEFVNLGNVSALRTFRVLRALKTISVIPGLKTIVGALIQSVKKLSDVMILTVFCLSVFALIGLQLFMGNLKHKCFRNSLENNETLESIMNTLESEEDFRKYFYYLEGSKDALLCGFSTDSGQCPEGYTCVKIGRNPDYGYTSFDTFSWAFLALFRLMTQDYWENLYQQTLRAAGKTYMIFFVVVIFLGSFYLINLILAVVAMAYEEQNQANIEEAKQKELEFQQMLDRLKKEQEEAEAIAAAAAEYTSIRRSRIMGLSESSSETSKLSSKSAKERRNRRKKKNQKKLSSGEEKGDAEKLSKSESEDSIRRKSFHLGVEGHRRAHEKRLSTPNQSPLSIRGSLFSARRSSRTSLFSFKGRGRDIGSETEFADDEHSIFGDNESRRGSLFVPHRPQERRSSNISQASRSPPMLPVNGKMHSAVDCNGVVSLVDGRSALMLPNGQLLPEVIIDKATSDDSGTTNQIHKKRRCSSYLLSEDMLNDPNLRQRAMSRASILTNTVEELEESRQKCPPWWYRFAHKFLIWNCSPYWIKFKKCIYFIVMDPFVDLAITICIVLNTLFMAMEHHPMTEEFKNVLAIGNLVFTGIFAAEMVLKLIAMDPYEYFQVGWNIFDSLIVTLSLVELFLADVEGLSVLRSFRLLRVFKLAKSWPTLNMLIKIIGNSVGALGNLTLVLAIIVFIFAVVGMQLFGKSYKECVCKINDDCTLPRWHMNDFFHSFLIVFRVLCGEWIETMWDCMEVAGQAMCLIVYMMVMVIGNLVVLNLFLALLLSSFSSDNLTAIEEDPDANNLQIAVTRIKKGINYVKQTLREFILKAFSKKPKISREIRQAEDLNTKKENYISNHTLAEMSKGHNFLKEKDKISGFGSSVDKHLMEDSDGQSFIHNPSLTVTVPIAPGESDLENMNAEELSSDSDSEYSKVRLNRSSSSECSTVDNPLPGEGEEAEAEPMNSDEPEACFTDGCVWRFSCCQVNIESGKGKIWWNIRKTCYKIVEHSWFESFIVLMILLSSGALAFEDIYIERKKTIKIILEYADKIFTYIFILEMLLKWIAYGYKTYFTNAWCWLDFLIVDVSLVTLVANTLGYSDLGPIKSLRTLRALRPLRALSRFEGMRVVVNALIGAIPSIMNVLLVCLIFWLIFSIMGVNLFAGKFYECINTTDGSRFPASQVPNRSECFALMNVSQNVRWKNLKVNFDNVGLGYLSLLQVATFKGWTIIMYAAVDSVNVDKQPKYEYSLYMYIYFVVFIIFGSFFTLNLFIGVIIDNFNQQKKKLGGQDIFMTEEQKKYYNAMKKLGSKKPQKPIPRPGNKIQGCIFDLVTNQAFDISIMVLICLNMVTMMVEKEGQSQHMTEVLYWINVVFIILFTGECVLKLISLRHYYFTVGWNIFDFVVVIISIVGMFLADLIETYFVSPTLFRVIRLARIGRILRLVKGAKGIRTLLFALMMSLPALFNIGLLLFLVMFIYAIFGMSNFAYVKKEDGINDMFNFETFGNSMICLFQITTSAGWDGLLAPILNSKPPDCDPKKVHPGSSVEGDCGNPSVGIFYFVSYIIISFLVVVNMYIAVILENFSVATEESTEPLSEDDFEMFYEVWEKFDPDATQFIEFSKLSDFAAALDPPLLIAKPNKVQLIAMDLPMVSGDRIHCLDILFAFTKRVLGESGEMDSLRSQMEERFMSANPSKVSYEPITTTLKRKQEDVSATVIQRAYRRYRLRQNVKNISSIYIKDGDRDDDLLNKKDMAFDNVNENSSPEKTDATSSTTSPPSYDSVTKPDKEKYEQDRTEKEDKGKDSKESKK

Structure (SMILES)	IC50
O=S(=O)(Nc1nncs1)c1cc(Cl)c(Oc2ccc(-c3ccc(C(F)(F)F)cc3)cc2-c2ccnnc2)cc1F [Example 6, 5-Chloro-2-fluoro-4-{[3-pyridazin-4-yl-4′-(trifluoromethyl)biphenyl-4-yl]oxy}-N-1,3,4-thiadiazol-2-ylbenzenesulfonamide]	2.9 nM
O=S(=O)(Nc1nncs1)c1ccc(Oc2ccc(-c3ccccc3)cc2-c2ccnnc2)c(Cl)c1 [Example 9, 3-Chloro-4-[(3-pyridazin-4-ylbiphenyl-4-yl)oxy]-N-1,3,4-thiadiazol-2-ylbenzenesulfonamide]	11.6 nM
Cn1nccc1-c1cc(-c2ccccc2)ccc1Oc1cc(F)c(S(=O)(=O)Nc2ccc(F)cn2)cc1Cl [Example 22, 5-Chloro-2-fluoro-N-(5-fluoropyridin-2-yl)-4-{[3-(1-methyl-1H-pyrazol-5-yl)biphenyl-4-yl]oxy}benzenesulfonamide]	33 nM
O=S(=O)(Nc1nncs1)c1cc(Cl)c(Oc2cc(-c3cccc(F)c3)c(Cl)cc2-c2ccnnc2)cc1F [Example 36, 5-Chloro-4-[(6-chloro-3′-fluoro-4-pyridazin-4-ylbiphenyl-3-yl)oxy]-2-fluoro-N-1,3,4-thiadiazol-2-ylbenzenesulfonamide]	11 nM
O=S(=O)(Nc1nncs1)c1cc(Cl)c(Oc2cc(Cl)c(-c3cccc(F)c3)cc2-c2ccnnc2)cc1F [Example 26, 5-Chloro-4-{[2-chloro-3′-fluoro-5-(pyridazin-4-yl)biphenyl-4-yl]oxy}-2-fluoro-N-(1,3,4-thiadiazol-2-yl)benzenesulfonamide]	2.3 nM
O=S(=O)(Nc1nncs1)c1cc(Cl)c(Oc2ccc(-c3cccc(C(F)(F)F)n3)cc2-c2ccnnc2)cc1F [Example 31, 5-Chloro-2-fluoro-4-{2-(pyridazin-4-yl)-4-[6-(trifluoromethyl)pyridin-2-yl]phenoxy}-N-(1,3,4-thiadiazol-2-yl)benzenesulfonamide]	16 nM
N#Cc1cc(S(=O)(=O)Nc2ncns2)ccc1Oc1ccc(-c2ccccc2C(F)(F)F)cc1-c1ccnnc1 [Example 17, 3-Cyano-4-{[3-pyridazin-4-yl-2′-(trifluoromethyl)biphenyl-4-yl]oxy}-N-1,2,4-thiadiazol-5-ylbenzenesulfonamide]	2.7 nM
O=S(=O)(Nc1nncs1)c1cc(Cl)c(Oc2ccc(-c3ccccc3C(F)(F)F)cc2-c2ccnnc2)cc1F [Example 4, 5-Chloro-2-fluoro-4-{[3-pyridazin-4-yl-2′-(trifluoromethyl)biphenyl-4-yl]oxy}-N-1,3,4-thiadiazol-2-ylbenzenesulfonamide]	2.9 nM

Molecules with a lower IC50, results first:

IC50	Structure (SMILES)
0.5 nM	O=S(=O)(Nc1nncs1)c1cc(Cl)c(Oc2ccc(-c3ccc(C(F)(F)F)cc3)cc2-c2ccnc(N3CCNCC3)c2)cc1F [Example 34, 5-Chloro-2-fluoro-4-({3-[2-(piperazin-1-yl)pyridin-4-yl]-4′-(trifluoromethyl)biphenyl-4-yl}oxy)-N-(1,3,4-thiadiazol-2-yl)benzenesulfonamide, hydrochloride]
0.9 nM	O=S(=O)(Nc1nncs1)c1cc(Cl)c(Oc2cc(Cl)c(-c3cccc(C(F)(F)F)c3)cc2-c2ccnnc2)cc1F [Example 28, 5-Chloro-4-{[2-chloro-5-(pyridazin-4-yl)-3′-(trifluoromethyl)biphenyl-4-yl]oxy}-2-fluoro-N-(1,3,4-thiadiazol-2-yl)benzenesulfonamide]
1.1 nM	CN1CC(n2nccc2-c2cc(-c3ccc(C(F)(F)F)cc3)ccc2Oc2cc(F)c(S(=O)(=O)Nc3nncs3)cc2Cl)C1 [Example 14, 5-Chloro-2-fluoro-4-({3-[1-(1-methylazetidin-3-yl)-1H-pyrazol-5-yl]-4′-(trifluoromethyl)biphenyl-4-yl}oxy)-N-1,3,4-thiadiazol-2-ylbenzenesulfonamide]
0.8 nM	Nc1n[nH]cc1-c1cc(-c2cccc(C(F)(F)F)c2)ccc1Oc1cc(F)c(S(=O)(=O)Nc2nncs2)cc1Cl [Example 25, 4-{[3-(3-Amino-1H-pyrazol-4-yl)-3′-(trifluoromethyl)biphenyl-4-yl]oxy}-5-chloro-2-fluoro-N-(1,3,4-thiadiazol-2-yl)benzenesulfonamide]
1 nM	O=S(=O)(Nc1ncccn1)c1cc(Cl)c(Oc2ccc(-c3ccc(C(F)(F)F)cc3)cc2-c2ccnc(N3CCNCC3)c2)cc1F [Example 40, 5-chloro-2-fluoro-4-{[3-(2-piperazin-1-ylpyridin-4-yl)-4′-(trifluoromethyl)biphenyl-4-yl]oxy}-N-pyrimidin-2-ylbenzenesulfonamide]
1.5 nM	Cn1nccc1-c1cc(-c2ccccc2)ccc1Oc1ccc(S(=O)(=O)Nc2ncns2)cc1C#N [Example 16, 3-Cyano-4-{[3-(1-methyl-1H-pyrazol-5-yl)biphenyl-4-yl]oxy}-N-1,2,4-thiadiazol-5-ylbenzenesulfonamide]
1.7 nM	O=S(=O)(Nc1nncs1)c1cc(Cl)c(Oc2cc(Cl)c(-c3ccc(F)cc3)cc2-c2ccnnc2)cc1F [Example 24, 5-Chloro-4-{[2-chloro-4′-fluoro-5-(pyridazin-4-yl)biphenyl-4-yl]oxy}-2-fluoro-N-(1,3,4-thiadiazol-2-yl)benzenesulfonamide]
